In publication PMC8508960, “Ruthenium Half-Sandwich Type Complexes with Bidentate Monosaccharide Ligands Show Antineoplastic Activity in Ovarian Cancer Cell Models through Reactive Oxygen Species Production” (International Journal of Molecular Sciences, 2021):
Values joined by “and” are separate entries in the source; they are usually repeats but may differ in a detail not shown here. Identical values can stand only once. “Also recorded” adds a separate entry of the source.

Columns and labels:
[1] = test system: A2780 human ovarian carcinoma cells; test: SRB proliferation assay (48 h) on A2780 cells; format: cell-based; conditions: for cytostatic activity in long-term SRB assay (in words): A2780 cells, 100–0.0017 µM; for A2780 Hill Slope / IC50: SRB, nonlinear regression, N/A = could not be calculated/had no effect
Procedure: (§1) Cells were cultured under standard cell culture conditions, 37 °C, 5% CO2, humidified atmosphere. A2780 cells were cultured in RMPI 1640 medium supplemented with 10% fetal calf serum, 2 mM glutamine, and 1% penicillin–streptomycin (Sigma-Aldrich). ID8 cells were cultured in high-glucose DMEM (4.5 g/L glucose) supplemented with 4% fetal calf serum, 2 mM glutamine, 1% penicillin–streptomycin (Sigma-Aldrich), and 1% ITS supplement (Sigma-Aldrich I3146). U251 cells were maintained in MEM (Sigma-Aldrich), 10% fetal bovine serum (Sigma-Aldrich), 1% penicillin/streptomycin (Invitrogene), and 2 mM glutamine. MCF7 cells were maintained in MEM (Sigma-Aldrich), 10% fetal bovine serum (Sigma-Aldrich), 1% penicillin/streptomycin (Invitrogen, Waltham, MA, USA), and 2 mM glutamine. Capan2 cells were maintained in MEM (Sigma-Aldrich), 10% fetal bovine serum (Sigma-Aldrich), 1% penicillin/streptomycin (Invitrogen), and 2 mM glutamine. Human primary dermal fibroblasts were cultured in low-glucose DMEM (1 g/L glucose) supplemented with 20% fetal calf serum, 2 mM glutamine, and 1% penicillin–streptomycin (Sigma-Aldrich).
(§2) The SRB accumulation assay assesses protein content in a sample, and it was used to assess cell proliferation. The SRB accumulation assay was performed similarly to [68]. Cells were seeded in 96-well plates. The next day, cells were treated with the compounds for 48 h in the concentrations indicated in a cell incubator. At the end of treatment, cells were fixed with 10% trichloroacetic acid (TCA). Fixed cells were stained with SRB (0.4% m/v dissolved in 1% acetic acid) for 60 min. Fixed cells were washed in 1% acetic acid three times; acetic acid was removed, and cells were left to dry. Protein-bound SRB was released by adding 100 µL of 10 mM Tris base. Plates were measured in a plate photometer (Thermo Scientific Multiscan GO spectrophotometer, Waltham, MA, USA) at 540 nm. On each plate, wells were designed to contain untreated cells. In calculations, the readings for these wells were considered as 1, and all readings were expressed relative to these values.
(§3) Statistical analysis was performed using Graphpad Prism version 8.0.1. Values were tested for normal distribution using the D’Agostino and Pearson normality test. When necessary, values were log-normalized or were normalized using the Box–Cox normalization method, as indicated in the figure captions. Nonlinear regression was performed using the built-in “[Inhibitor] vs. response—variable slope (four parameters), least square fit” utility of Graphpad that yielded IC50 and Hill slope values.

[2] = test system: ID8 cells; test: SRB proliferation assay (48 h) on ID8 cells; format: cell-based; conditions: for ID8 Hill Slope / IC50: SRB, nonlinear regression, N/A = could not be calculated/had no effect; for cytostatic activity in long-term SRB assay (in words): ID8 cells
Procedure: as §1, §2, §3

[3] = test system: human primary skin fibroblasts; test: SRB proliferation assay (48 h) on primary fibroblasts; format: cell-based
Procedure: as §1, §2, §3

[4] = test system: A2780 human ovarian carcinoma cells; test: MTT reduction assay (4 h, rapid toxicity) on A2780 cells; format: cell-based
Procedure: as §1
The MTT reduction assay assesses the activity of mitochondrial complex I, and it was used to assess rapid toxicity. The MTT reduction assay was performed similarly to [67]. Cells were seeded in 96-well plates. The next day, cells were treated with the compounds for 4 h in the concentrations indicated in a cell incubator. At the end of treatment, MTT was added in 0.5 mg/mL final concentration, and cells were incubated at 37 °C in a cell incubator. Then, culture media was removed, the reduced MTT dye was resolved in dimethyl sulfoxide (DMSO), and plates were measured in a plate photometer (Thermo Scientific Multiscan GO spectrophotometer, Waltham, MA, USA) at 540 nm. On each plate, wells were designed to contain untreated/vehicle-treated cells. In calculations, the readings for these wells were considered as 1, and all readings were expressed relative to these values.

[5] = test system: A2780 cells; test: SRB assay on A2780 cells with or without 3 µM rucaparib; format: cell-based, human; conditions: 48 h, 3 µM
Procedure: as §2, §3

[6] = SRB, nonlinear regression, N/A = could not be calculated/had no effect

CC(=O)OCC1OC(c2n[n+]3c(o2)-c2cccc[n+]2[Ru-]3[Cl])C(OC(C)=O)C(OC(C)=O)C1OC(C)=O.Cc1ccc(C(C)C)cc1.F[P-](F)(F)(F)(F)F (mixture of isomers) [Ru-5]
cytostatic activity in long-term SRB assay (in words) [1]: abrogated the inhibitory activity

Cc1ccc(C(C)C)cc1.F[P-](F)(F)(F)(F)F.OCC1OC(c2nnc(-c3ccccn3)o2)C(O)C(O)C1O.[Cl][Ru+] (mixture of isomers) [Ru-10]
cytostatic activity in long-term SRB assay (in words) [1]: abrogated the inhibitory activity

N.N.O=C([O-])C1(C(=O)[O-])CCC1.[Pt+2] [Carboplatin, carboplatin, reference compound]
A2780 Hill Slope [1]: 1.02
IC50 [1]: 28 µM
ID8 Hill Slope [2]: 0.62
effect in long-term SRB assay (in words) ([3]; primary human fibroblasts): no effect

N.N.[Cl][Pt][Cl] [Cisplatin, cisplatin, reference compound]
A2780 Hill Slope [1]: 1.20
IC50 [1]: 1.21 µM
IC50 [2]: 10.8 µM
ID8 Hill Slope [2]: 0.99
Fibroblast Hill Slope [3, 6]: 1.53
IC50 ([3]; SRB, nonlinear regression, N/A = could not be calculated/had no effect, read-out: Fibroblast IC50): 11.9 µM
effect in SRB assay above 10 µM ([3]; primary human fibroblasts, above 10 µM): cytostatic

O=C(OC[C@H]1O[C@@H](n2cc(-c3ccccn3)nn2)[C@H](OC(=O)c2ccccc2)[C@@H](OC(=O)c2ccccc2)[C@@H]1OC(=O)c1ccccc1)c1ccccc1 [Complex L-2a, 1-(2′,3′,4′,6′-Tetra-O-benzoyl-β-D-glucopyranosyl)-4-(pyridin-2-yl)-1,2,3-triazole]
effect in short-term MTT assay, rapid toxicity (in words) [4]: no biological activity
cytostatic activity in long-term SRB assay (in words) [1]: no biological activity; also recorded: none of the corresponding ligands (L-2a, L-4, L-6, and L-8) had cytostatic properties
cytostatic activity in long-term SRB assay (in words) [2]: none of the corresponding ligands (L-2a, L-4, L-6, and L-8) had cytostatic properties
effect in long-term SRB assay (in words) ([3]; primary human fibroblasts): no effect

O=C(OC[C@H]1O[C@@H](c2nnc(-c3ccccn3)o2)[C@H](OC(=O)c2ccccc2)[C@@H](OC(=O)c2ccccc2)[C@@H]1OC(=O)c1ccccc1)c1ccccc1 [Complex L-4, 2-(2′,3′,4′,6′-Tetra-O-benzoyl-β-D-glucopyranosyl)-5-(pyridin-2-yl)-1,3,4-oxadiazole]
effect in short-term MTT assay, rapid toxicity (in words) [4]: no biological activity
cytostatic activity in long-term SRB assay (in words) [1]: no biological activity; also recorded: none of the corresponding ligands (L-2a, L-4, L-6, and L-8) had cytostatic properties
cytostatic activity in long-term SRB assay (in words) [2]: none of the corresponding ligands (L-2a, L-4, L-6, and L-8) had cytostatic properties
effect in long-term SRB assay (in words) ([3]; primary human fibroblasts): no effect

O=C(O[C@@H]1[C@@H](OC(=O)c2ccccc2)[C@H](c2nnc(-c3ccccn3)o2)OC[C@H]1OC(=O)c1ccccc1)c1ccccc1 [Complex L-6, 2-(2′,3′,4′-Tri-O-benzoyl-β-D-xylopyranosyl)-5-(pyridin-2-yl)-1,3,4-oxadiazole]
effect in short-term MTT assay, rapid toxicity (in words) [4]: no biological activity
cytostatic activity in long-term SRB assay (in words) [1]: no biological activity; also recorded: none of the corresponding ligands (L-2a, L-4, L-6, and L-8) had cytostatic properties
cytostatic activity in long-term SRB assay (in words) [2]: none of the corresponding ligands (L-2a, L-4, L-6, and L-8) had cytostatic properties
effect in long-term SRB assay (in words) ([3]; primary human fibroblasts): no effect

O=C(OC[C@H]1O[C@@H](c2nnc(-c3ccccn3)o2)[C@H](OC(=O)c2ccccc2)[C@@H](OC(=O)c2ccccc2)[C@H]1OC(=O)c1ccccc1)c1ccccc1 [Complex L-8, 2-(2′,3′,4′,6′-Tetra-O-benzoyl-β-D-galactopyranosyl)-5-(pyridin-2-yl)-1,3,4-oxadiazole]
effect in short-term MTT assay, rapid toxicity (in words) [4]: no biological activity
cytostatic activity in long-term SRB assay (in words) [1]: no biological activity; also recorded: none of the corresponding ligands (L-2a, L-4, L-6, and L-8) had cytostatic properties
cytostatic activity in long-term SRB assay (in words) [2]: none of the corresponding ligands (L-2a, L-4, L-6, and L-8) had cytostatic properties
effect in long-term SRB assay (in words) ([3]; primary human fibroblasts): no effect

c1ccc(-n2cc(-c3ccccn3)nn2)cc1 [Complex L-13, 1-phenyl-4-(pyridine-2-yl)-1,2,3-triazole]
cytostatic activity in long-term SRB assay (in words) [1]: Neither of the free ligands, L-13 or L-14, had cytostatic activity

c1ccc(-c2nnc(-c3ccccn3)o2)cc1 [Complex L-14, 2-phenyl-5-(pyridine-2-yl)-1,3,4-oxadiazole]
cytostatic activity in long-term SRB assay (in words) [1]: Neither of the free ligands, L-13 or L-14, had cytostatic activity

O=C1[O][Pt]2([NH][C@@H]3CCCC[C@H]3[NH]2)[O]C1=O [Oxaliplatin, oxaliplatin, reference compound]
A2780 Hill Slope [1]: 1.27
IC50 [1]: 0.12 µM
IC50 [2]: 4.59 µM
ID8 Hill Slope [2]: 1.58
Fibroblast Hill Slope [3, 6]: 0.37
effect in long-term SRB assay (in words) ([3]; primary human fibroblasts): no effect

Cc1ccc(C(C)C)cc1.F[P-](F)(F)(F)(F)F.[Cl][Ru+].c1ccc(-n2cc(-c3ccccn3)nn2)cc1 [Ru-13]
cytostatic activity in long-term SRB assay (in words) [1]: lowered the cytostatic capacity
A2780 Hill Slope [1]: 1.5 and 1.57
IC50 [1]: 12 µM

Cc1ccc(C(C)C)cc1.F[P-](F)(F)(F)(F)F.[Cl][Ru+].c1ccc(-c2nnc(-c3ccccn3)o2)cc1 [Ru-14]
cytostatic activity in long-term SRB assay (in words) [1]: no cytostatic activity; also recorded: fully abrogated it
A2780 Hill Slope [1]: 0.77

CNCc1ccc(-c2[nH]c3cc(F)cc4c3c2CCNC4=O)cc1 [Rucaparib, rucaparib, reference compound]
cell proliferation (in words) [5]: reduced cell proliferation
